Data: patent US6716833B2, “Acetylenic α-amino acid-based sulfonamide hydroxamic acid tace inhibitors” (priority 1999, dated 2004)
Structures can show the parent of a compound that is named as a salt. Where two headings read alike, the source gives them in different places.

Legend:
MMP-1 = molecular target: T1, MMP-1 (Homo sapiens, UniProt P03956); assay: MMP-1 inhibition (thiopeptide or fluorescent peptide substrate); assay type: biochemical
T1 sequence (P03956 100-469): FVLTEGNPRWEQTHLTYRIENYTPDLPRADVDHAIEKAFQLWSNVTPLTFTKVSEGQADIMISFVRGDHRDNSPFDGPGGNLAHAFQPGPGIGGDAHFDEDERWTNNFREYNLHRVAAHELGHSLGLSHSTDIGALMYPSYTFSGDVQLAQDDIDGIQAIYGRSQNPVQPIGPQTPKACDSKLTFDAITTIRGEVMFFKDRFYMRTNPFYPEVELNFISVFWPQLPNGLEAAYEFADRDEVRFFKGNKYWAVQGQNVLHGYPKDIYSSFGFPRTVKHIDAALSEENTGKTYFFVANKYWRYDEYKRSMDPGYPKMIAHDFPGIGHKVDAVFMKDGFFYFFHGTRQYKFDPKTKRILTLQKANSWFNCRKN

MMP-9 = MMP-9 (Homo sapiens, UniProt P14780); assay: MMP-9 inhibition (thiopeptide or fluorescent peptide substrate); assay type: biochemical
MMP-13 = MMP-13 (Homo sapiens, UniProt P45452); assay: MMP-13 inhibition (thiopeptide or fluorescent peptide substrate); assay type: biochemical
Protocol: The enzyme activity is measured by the rate of the color increase. The thiopeptide substrate is made up fresh as a 20 mM stock in 100% DMSO and the DTNB is dissolved in 100% DMSO as a 100 mM stock and stored in the dark at room temperature. Both the substrate and DTNB are diluted together to 1 mM with substrate buffer (50 mM HEPES pH 7.5, 5 mM CaCl2) before use. The stock of enzyme is diluted with buffer (50 mM HEPES, pH 7.5, 5 mM CaCl2, 0.02% Brij) to the desired final concentration.
Alternatively, a fluorescent peptide substrate is used. In this test procedure, the peptide substrate contains a fluorescent group and a quenching group. Upon cleavage of the substrate by an MMP, the fluorescence that is generated is quantitated on the fluorescence plate reader. The assay is run in HCBC assay buffer (50 mM HEPES, pH 7.0, 5 mM Ca^+2, 0.02% Brij, 0.5% Cysteine), with human recombinant MMP-1, MMP-9, or MMP-13. […] For the assay, substrate and enzymes are diluted in HCBC buffer to the desired concentrations. Compounds are added to the 96 well plate containing enzyme and the reaction is started by the addition of substrate.
For either the thiopeptide or fluorescent peptide test procedures, the slope of the line is calculated and represents the reaction rate. The linearity of the reaction rate is confirmed (r^2>0.85). The mean (x±sem) of the control rate is calculated and compared for statistical significance (p<0.05) with drug-treated rates using Dunnett's multiple comparison test.

THP-1 cells = assay: THP-1 soluble protein assay, soluble TNF-α (ELISA); assay type: cell-based, human; conditions: for inhibition at 3 µM: Homo sapiens, THP-1, 3 μM, read-out: THP % Inhibition @ 3 μM
Protocol: Each vial of cells are cultured for about two weeks prior to being used for an assay and then are used for only 4 to 6 weeks to screen compounds.
Cell exposure to DMSO was limited to 0.1% final concentration. […] Plates are placed into an incubator set at 5% CO2 and at 37° C. After 4 hours of incubation, 300 ml/well of tissue culture supernatant (TCS) is removed for use in an TNF-α ELISA.
Percent change in each soluble protein evaluated from the “vehicle positive control” was calculated for each compound concentration with the following formula:
% Change=pg/ml (compound)−pg/ml (veh pos control)/(veh pos control)−pg/ml (veh neg control)×100
For the soluble protein (TNF-α, p75/80, p55/60, IL-8) studies under stimulated conditions, the mean pg/ml of duplicate wells were determined and the results expressed as percent change from “vehicle positive control”.

[1] = molecular target: TNF-α converting enzyme (TACE) (Homo sapiens, UniProt P78536); assay: TACE inhibition (fluorescent peptidyl substrate); assay type: biochemical; conditions: read-out: TACE IC50
[2] = Table 10, read-out: MMP-13 IC50

MMP-9, sequence (P14780 94-707): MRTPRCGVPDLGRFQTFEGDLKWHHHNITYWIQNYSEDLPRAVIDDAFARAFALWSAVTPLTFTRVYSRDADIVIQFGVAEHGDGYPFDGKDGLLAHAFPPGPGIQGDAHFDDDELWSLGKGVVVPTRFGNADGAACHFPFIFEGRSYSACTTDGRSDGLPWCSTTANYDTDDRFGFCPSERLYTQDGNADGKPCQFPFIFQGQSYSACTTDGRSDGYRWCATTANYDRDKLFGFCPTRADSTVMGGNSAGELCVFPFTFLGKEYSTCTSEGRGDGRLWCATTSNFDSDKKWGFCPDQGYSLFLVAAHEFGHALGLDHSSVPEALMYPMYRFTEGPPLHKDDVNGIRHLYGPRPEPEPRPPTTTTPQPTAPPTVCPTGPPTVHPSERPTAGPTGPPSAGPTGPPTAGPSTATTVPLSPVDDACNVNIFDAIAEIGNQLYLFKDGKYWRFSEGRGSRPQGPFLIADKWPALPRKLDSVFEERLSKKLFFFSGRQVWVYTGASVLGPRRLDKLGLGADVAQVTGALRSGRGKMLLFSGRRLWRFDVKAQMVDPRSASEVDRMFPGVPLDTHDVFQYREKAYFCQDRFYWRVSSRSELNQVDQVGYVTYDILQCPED
TNF-α converting enzyme (TACE), sequence (P78536 215-824, species assumed): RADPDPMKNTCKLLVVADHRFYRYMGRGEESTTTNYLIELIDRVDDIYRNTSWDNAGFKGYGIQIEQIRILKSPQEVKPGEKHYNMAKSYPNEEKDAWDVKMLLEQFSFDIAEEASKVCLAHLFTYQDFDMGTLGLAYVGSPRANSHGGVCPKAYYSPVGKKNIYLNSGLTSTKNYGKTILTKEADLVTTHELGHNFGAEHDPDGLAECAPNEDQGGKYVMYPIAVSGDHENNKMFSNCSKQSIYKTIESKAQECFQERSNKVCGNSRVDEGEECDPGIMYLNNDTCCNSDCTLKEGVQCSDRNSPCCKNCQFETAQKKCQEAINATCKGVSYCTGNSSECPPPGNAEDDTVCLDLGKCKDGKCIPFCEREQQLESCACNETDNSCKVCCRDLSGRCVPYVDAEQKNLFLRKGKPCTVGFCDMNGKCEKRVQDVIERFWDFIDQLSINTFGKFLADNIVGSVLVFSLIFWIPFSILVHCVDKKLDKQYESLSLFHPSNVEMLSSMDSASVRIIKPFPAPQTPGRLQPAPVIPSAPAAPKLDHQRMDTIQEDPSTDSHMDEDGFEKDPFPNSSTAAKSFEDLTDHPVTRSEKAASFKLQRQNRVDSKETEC

Compound | IC50 (MMP-1; read-out: MMP-1 IC50) [nM] | IC50 (MMP-9; read-out: MMP-9 IC50) [nM] | IC50 (MMP-13; read-out: MMP-13 IC50) [nM] | THP % Inhibition @ 3 μM (THP-1 cells; THP-1 cells) [%] | IC50 [1] [nM] | inhibition at 3 µM (THP-1 cells; THP-1 cells) [%] | also measured
2-[(4-but-2-Ynylthiophenylsulfonyl)methylamino]-N-hydroxyacetamide [Example 134] | 4950 | 111 | 84 | 14 |  |  | 
CC#CCOc1ccc(S(=O)(=O)NC(CSCc2ccccc2)C(=O)NO)cc1 (stereo not drawn) [Example 168] | 1970 | 141 |  | 62 | 4.5 |  | 
CC1(C)SCCN(S(=O)(=O)c2ccc(OCC#CCO)cc2)C1C(=O)NO (stereo not drawn) [Example 61, 4-[4-(4-Hydroxy-but-2-ynyloxy)-benzenesulfonyl]-2,2-dimethyl-thiomorpholine-3-carboxylic Acid Hydroxyamide] |  |  |  |  |  |  | IC50 (MMP-1; Table 10, read-out: MMP-1 IC50): 24 nM; IC50 (MMP-9; MMP-9 IC50, Table 10): 70 nM; IC50 (MMP-13; [2]): 13 nM; IC50 ([1]; Table 10): 40 nM; inhibition at 3 µM (THP-1 cells; Table 10): 89%
CC#CCOc1ccc(S(=O)(=O)NC(CSC)C(=O)NO)cc1 (stereo not drawn) [Example 167] | 1740 | 228 |  | 77 | 3.5 |  | 
CC#CCOc1ccc(S(=O)(=O)N2C[C@H](CNC(=O)OC(C)(C)C)SC(C)(C)[C@@H]2C(=O)NO)cc1 [Example 274, tert-Butyl{(2S,5S)-4-{[4-(2-butynyloxy)phenyl]sulfonyl}-5-[(hydroxyamino)carbonyl]-6,6-dimethylthiomorpholinyl}methylcarbamate] |  |  |  |  |  |  | IC50 (MMP-9; Table 11, read-out: MMP-9 IC50): 107 nM; IC50 ([1]; Table 11): 59 nM; THP % Inhibition @ 3 μM (THP-1 cells; Table 11): 84%
CC#CCOc1ccc(S(=O)(=O)NC(C)(C)C(=O)NO)cc1 [Example 35, 2-(4-but-2-ynyloxy-Benzenesulfonylamino)-N-hydroxy-2-methyl-propionaiwde] |  | 1380 | 396 |  | 12.9 | 9 | 
CC#CCOc1ccc(S(=O)(=O)N(C)C(C(=O)NO)C(C)(C)SCCN2CCCC2C(=O)OC)cc1 (stereo not drawn) [Example 145] | 18 | 7.1 | 2.5 | 83 | 109 |  | 
CC#CCOc1ccc(S(=O)(=O)N(CC#CCN(CC)CC)C(C(=O)NO)C(C)C)cc1 (stereo not drawn) [Example 126] | 212 | 149 | 36 | 93 | 73 |  | 
CC#CCOc1ccc(S(=O)(=O)NC(C(=O)NO)C(C)(C)SCc2cccnc2)cc1 (stereo not drawn) [Example 161] | 476 | 130 | 7.9 | 81 | 6.4 |  | 
CN(CC(=O)NO)S(=O)(=O)c1ccc(OCC#Cc2ccc(Cl)cc2)cc1 [Example 132] | > 10000 | 2370 | 1120 | 27 | 1100 |  | 
CC#CCOc1ccc(S(=O)(=O)NC(C(=O)NO)C(C)(C)SCC(=O)O)cc1 (stereo not drawn) [Example 166, tert-Butyl {[2-({[4-2-Butynyloxy)phenyl]sulfonyl}amino)-3-(hydroxyamino)-1,1-dimethyl-3-oxopropyl]sulfanyl Acetic Acid, Sodium Salt] | 1900 | 2940 | 241 |  |  | 55 | 
CC#CCOc1ccc(S(=O)(=O)N(C)[C@H](CSC)C(=O)NO)cc1 [Example 154] | 47 | 19 | 5.4 |  | 3.3 | 90 | 
CC#CCOc1ccc(S(=O)(=O)N[C@@H](C(=O)NO)[C@@H](C)CC)cc1 [Example 105, (2R,3S)-2-({[4-(2-Butynyloxy)phenyl]sulfonyl}amino)-N-hydroxy-3-methylpentanamide] | 1740 | 213 | 52 |  | 6.8 | 87 | 
CC#CCOc1ccc(S(=O)(=O)N2CCN(S(C)(=O)=O)CC2C(=O)NO)cc1 (stereo not drawn) [Example 227, 1-(4-but-2-ynyloxy-Benzenesulfonyl)-4-methanesulfonyi-piperazine-2-carboxylic Acid Hydroxyamide] | 96 | 51 | 6.4 |  |  | 81 | 
2-[[4-Butynyloxy-phenylsulfonyl]-amino]-N-hydroxy-3-(pyridinylthio)propanamide [Example 169] | 1910 | 160 | 28 | 77 | 2.9 |  | 
CC#CCOc1ccc(S(=O)(=O)N[C@@H](C(=O)NO)C(C)(C)SCCCO)cc1 [Example 171, (2S)-2-({[4-(2-Butynyloxy)phenyl]sulfonyl}amino)-N-hydroxy-3-[(3-hydroxypropyl)sulfanyl]-3-methylbutanamide] | 2140 |  | 36 |  | 25 | 67 | 
CC#CCOc1ccc(S(=O)(=O)NC(C(=O)NO)C(C)C)cc1 (stereo not drawn) [Example 27, 2-(4-but-2-ynyloxy-Benzenesulfonylamino)-N-hydroxy-3-methyl-butyramide] |  |  |  |  | 32 | 75 | IC50 (MMP-1; MMP-1 IC50): 2960 nM; IC50 (MMP-9; MMP-9 IC50): 42 nM; IC50 (MMP-13; MMP-13 IC50): 18 nM
CC#CCOc1ccc(S(=O)(=O)N[C@@H](C(=O)NO)C(C)(C)C)cc1 [Example 106, (2R)-2-({[4-(2-Butynyloxy)phenyl]sulfonyl)amino)-N-hydroxy-3,3-dimethylbutanamide] | 880 | 224 | 41 |  | 17 | 91 | 
CC#CCOc1ccc(S(=O)(=O)N2C[C@@H](CNC(=O)OC(C)(C)C)SC(C)(C)[C@@H]2C(=O)NO)cc1 [Example 273, tert-Butyl{(2R,5S)-4-{[4-(2-butynyloxy)phenyl]sulfonyl}-5-[(hydroxyamino)carbonyl]-6,6-dimethylthiomorpholinyl}methylcarbamate] |  |  |  |  |  |  | IC50 (MMP-9; Table 11, read-out: MMP-9 IC50): 61 nM; IC50 ([1]; Table 11): 87 nM; inhibition at 3 µM (THP-1 cells; Table 11): 90%
CC1(C)SCCN(S(=O)(=O)c2ccc(OCC#CCO)cc2)[C@H]1C(=O)NO [Example 260, (3S)-N-Hydroxy-4-({4-[(4-hydroxy-2-butynyl)oxy]phenyl}sulfonyl)-2,2-dimethyl-3-thiomorpholine Carboxamide] |  |  |  |  |  |  | IC50 (MMP-1; Table 10, read-out: MMP-1 IC50): 33 nM; IC50 (MMP-13; [2]): 8.1 nM; IC50 ([1]; Table 10): 20 nM; inhibition at 3 µM (THP-1 cells; Table 10): 95%
CC#CCOc1ccc(S(=O)(=O)NCC(=O)NO)cc1 [Example 25, 2-(4-but-2-ynyloxy-Benzenesulfonylamino)-N-hydroxy-acetamide] |  | 753 |  |  | 4.8 | 39 | MMP-1 % inhibition (10) (MMP-1; at (10), concentration unit not given): 47%(10)
CC#CCOc1ccc(S(=O)(=O)NC(CSCCCCCCCCCC/C=C\CC)C(=O)NO)cc1 (stereo not drawn) [Example 170, 2-({[4-(2-butynyloxy)phenyl]sulfonyl}amino)-N-hydroxy-3-[(Z)-11-tetradecenylsulfanyl]propanamide] | > 10000 | 1570 | 322 |  | 272 | 7 | 
CC#CCOc1ccc(S(=O)(=O)NC(C)C(=O)NO)cc1 (stereo not drawn) [Example 30, 2-(4-but-2-ynyloxy-Benzenesulfonylamino)-N-hydroxy-propionamide] | 4390 | 262 | 40 |  | 6 | 60 | 
